Earlier results, collected in US20170216273A1, “Nicotine Derivatives and Methods of Use” (priority 2014, published 2017).

Conditions: approximately; no test described

## CN1CCC[C@H]1c1cccnc1 (racemic) [Racemic nicotine]
  potency relative to the L isomer: 70-80 % of the L isomer's potency

## CN1CCC[C@@H]1c1cccnc1 (single isomer, unassigned) [D isomer of nicotine, D-nicotine]
  potency relative to the L isomer: 25-30 % of the L isomer's potency
